In general, IC50 refers to the concentration at which inhibition is half-maximal.

For one experiment, the target named is T1, CFTR (Homo sapiens, UniProt P13569).
T1 construct: endogenous in cells; host or cells: T84 human colonic cells (ECACC)
Nature of the experiment: T84 assay (FLIPR membrane potential dye, forskolin/IBMX-stimulated CFTR channel activity). Conditions: imidazole and triazole-containing compounds (Tables 13, 14, 14′), read-out: IC50 (μM) (T84 assay). The experiment is classed as cell-based. A digest of the protocol:
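Fluorescence from a membrane potential dye in T84 monolayers (HBSS with 10 mM Hepes) is followed each second for 150 s. Cells are exposed to test compound during the 45 min dye loading, then challenged with forskolin (10 μM) and IBMX (100 μM) to open CFTR. Inhibitors suppress the depolarization-driven fluorescence increase.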

In the next experiment the target is T2, CHO-CFTR cell line (Homo sapiens, UniProt P13569).
T2 construct: expressed in transfected cells; host or cells: CHO (CHO-CFTR cell line)
Nature of the experiment: CHO-CFTR assay (FLIPR assay, same conditions as the T84 assay). Conditions: imidazole and triazole-containing compounds. The experiment is classed as cell-based.

T1 sequence (P13569 whole entry): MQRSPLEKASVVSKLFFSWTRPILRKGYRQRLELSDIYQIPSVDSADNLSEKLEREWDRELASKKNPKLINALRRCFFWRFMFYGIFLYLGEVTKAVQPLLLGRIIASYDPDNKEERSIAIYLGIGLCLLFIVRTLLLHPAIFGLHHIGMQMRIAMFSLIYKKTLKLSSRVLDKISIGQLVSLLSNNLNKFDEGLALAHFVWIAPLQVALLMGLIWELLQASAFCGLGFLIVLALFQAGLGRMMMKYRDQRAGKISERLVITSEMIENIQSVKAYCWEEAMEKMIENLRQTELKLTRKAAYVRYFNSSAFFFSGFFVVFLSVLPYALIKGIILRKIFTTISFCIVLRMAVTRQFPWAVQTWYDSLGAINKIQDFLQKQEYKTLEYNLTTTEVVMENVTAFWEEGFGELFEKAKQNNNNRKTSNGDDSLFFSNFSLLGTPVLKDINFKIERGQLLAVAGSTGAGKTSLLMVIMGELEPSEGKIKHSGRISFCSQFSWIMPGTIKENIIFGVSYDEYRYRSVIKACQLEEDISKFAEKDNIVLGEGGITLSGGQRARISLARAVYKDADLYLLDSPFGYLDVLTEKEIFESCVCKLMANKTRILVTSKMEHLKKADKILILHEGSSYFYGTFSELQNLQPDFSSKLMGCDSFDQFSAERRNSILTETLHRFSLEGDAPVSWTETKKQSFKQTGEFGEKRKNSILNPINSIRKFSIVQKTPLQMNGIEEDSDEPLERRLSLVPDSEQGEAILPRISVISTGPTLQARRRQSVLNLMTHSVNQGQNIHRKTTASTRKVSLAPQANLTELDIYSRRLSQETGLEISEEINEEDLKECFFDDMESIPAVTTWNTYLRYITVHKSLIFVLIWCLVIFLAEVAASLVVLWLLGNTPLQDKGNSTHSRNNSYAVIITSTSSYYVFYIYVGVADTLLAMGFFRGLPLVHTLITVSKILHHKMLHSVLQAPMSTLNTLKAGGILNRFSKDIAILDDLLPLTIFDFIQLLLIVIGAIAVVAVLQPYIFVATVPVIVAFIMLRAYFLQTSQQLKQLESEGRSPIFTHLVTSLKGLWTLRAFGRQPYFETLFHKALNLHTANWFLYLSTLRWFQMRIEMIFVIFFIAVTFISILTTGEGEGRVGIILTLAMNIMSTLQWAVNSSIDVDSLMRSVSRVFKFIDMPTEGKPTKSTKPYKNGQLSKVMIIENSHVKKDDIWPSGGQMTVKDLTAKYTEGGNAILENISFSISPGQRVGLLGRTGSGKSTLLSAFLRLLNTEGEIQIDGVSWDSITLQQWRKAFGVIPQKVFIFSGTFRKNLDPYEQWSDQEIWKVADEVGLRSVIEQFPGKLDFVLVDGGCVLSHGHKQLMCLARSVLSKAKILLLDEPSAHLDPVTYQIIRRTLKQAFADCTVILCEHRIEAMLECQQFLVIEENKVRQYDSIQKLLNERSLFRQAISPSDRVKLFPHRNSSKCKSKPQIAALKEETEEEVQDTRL
T2 sequence (P13569 whole entry): as above

As for `O=C(NCc1ccc(Oc2ccccc2)cc1)c1ncn(-c2cc(Cl)c(O)c(Cl)c2)n1` [49i, 1-(3,5-dichloro-4-hydroxyphenyl)-N-(4-phenoxybenzyl)-1H-1,2,4-triazole-3-carboxamide], the half-inhibitory concentration (IC50) came out at 1.57 µM on CFTR and 0.45 µM at CHO-CFTR cell line.
The like results for `O=C(NCc1ccc(Oc2ccc(OCc3ccccc3)c(F)c2)cc1)c1ncn(-c2cc(Cl)c(O)c(Cl)c2)n1` [71i, N-(4-(4-(benzyloxy)-3-fluorophenoxy)benzyl)-1-(3,5-dichloro-4-hydroxyphenyl)-1H-1,2,4-triazole-3-carboxamide] were, in that order, 8.06 µM and 31 µM.
The like results for `CC(C)N(Cc1ccc(C(C)(C)C)cc1)C(=O)c1ncn(-c2cc(Cl)c(O)c(Cl)c2)n1` [97i] were, in that order, 1.23 µM and 35.5 µM.
The like results for `O=C(NCc1ccc(Oc2ccc(Cl)c(C(F)(F)F)c2)cc1)c1ncn(-c2cc(Cl)c(O)c(Cl)c2)n1` [70i, N-(4-(4-chloro-3-(trifluoromethyl)phenoxy)benzyl)-1-(3,5-dichloro-4-hydroxyphenyl)-1H-1,2,4-triazole-3-carboxamide] were, in that order, 4.72 µM and 19.4 µM.
Take `O=C(NCc1cccc(OC(F)(F)F)c1)c1ncn(-c2cc(Cl)c(O)c(Cl)c2)n1` [3i, 1-(3,5-dichloro-4-hydroxyphenyl)-N-(3-(trifluoromethoxy)benzyl)-1H-1,2,4-triazole-3-carboxamide]: the IC50 on CFTR came to 7.14 µM; against CHO-CFTR cell line, 3.37 µM.
The like results for `CON(Cc1cccc(OC(F)(F)F)c1)C(=O)c1ncn(-c2cc(Cl)c(O)c(Cl)c2)n1` [125i, 1-(3,5-dichloro-4-hydroxyphenyl)-N-methoxy-N-(3-(trifluoromethoxy)benzyl)-1H-1,2,4-triazole-3-carboxamide] were, in that order, 3.44 µM and 9.67 µM.
The like results for `C=CCN(Cc1ccc(C(C)(C)C)cc1)C(=O)c1ncn(-c2cc(Cl)c(O)c(Cl)c2)n1` [51i, N-allyl-N-(4-tert-butylbenzyl)-1-(3,5-dichloro-4-hydroxyphenyl)-1H-1,2,4-triazole-3-carboxamide] were, in that order, 0.63 µM and 5.13 µM.
For `C=CCN(Cc1cccc(C(F)(F)F)c1)C(=O)c1ncn(-c2cc(Cl)c(O)c(Cl)c2)n1` [104i, N-allyl-1-(3,5-dichloro-4-hydroxyphenyl)-N-(3-(trifluoromethyl)benzyl)-1H-1,2,4-triazole-3-carboxamide], the IC50 on CFTR worked out at 5.83 µM; on CHO-CFTR cell line it was 41.9 µM.
The like results for `CCN(Cc1ccc(C(C)(C)C)cc1)C(=O)c1ncn(-c2cc(Cl)c(O)c(Cl)c2)n1` [88i, N-(4-tert-butylbenzyl)-1-(3,5-dichloro-4-hydroxyphenyl)-N-ethyl-1H-1,2,4-triazole-3-carboxamide] were, in that order, 0.75 µM and 6.58 µM.
The like results for `O=C(c1ncn(-c2cc(Cl)c(O)c(Cl)c2)n1)N1CCN(c2cccc(C(F)(F)F)c2)CC1` [4i, (1-(3,5-dichloro-4-hydroxyphenyl)-1H-1,2,4-triazol-3-yl)(4(3-(trifluoromethyl)phenyl)piperazin-1-yl)methanone] were, in that order, 8.15 µM and 14.3 µM.
The like results for `Oc1c(Cl)cc(-n2cnc(C(O)(Cc3ccccc3F)Cc3ccccc3F)n2)cc1Cl` [59i, 4-(3-(1,3-bis(2-fluorophenyl)-2-hydroxypropan-2-yl)-1H-1,2,4-triazol-1-yl)-2,6-dichlorophenol] were, in that order, 21.1 µM and 5.45 µM.
Regarding `Oc1c(Cl)cc(-n2cnc(C(O)(Cc3ccc(F)cc3)Cc3ccc(F)cc3)n2)cc1Cl` [56i, 4-(3-(1,3-bis(4-fluorophenyl)-2-hydroxypropan-2-yl)-1H-1,2,4-triazol-1-yl)-2,6-dichlorophenol], the half-inhibitory concentration (IC50) on CFTR was 20.4 µM; against CHO-CFTR cell line, 25.5 µM.
On to `CON(Cc1ccc(Cl)c(Cl)c1)C(=O)c1ncn(-c2cc(Cl)c(O)c(Cl)c2)n1` [126i, 1-(3,5-dichloro-4-hydroxyphenyl)-N-(3,4-dichlorobenzyl)-N-methoxy-1H-1,2,4-triazole-3-carboxamide], for which the figures for the IC50 on CFTR and against CHO-CFTR cell line were 2.43 µM and 2.46 µM, respectively.
The like results for `O=C(NCc1cc(F)cc(C(F)(F)F)c1)c1ncn(-c2cc(Cl)c(O)c(Cl)c2)n1` [24i, 1-(3,5-dichloro-4-hydroxyphenyl)-N-(3-fluoro-5-(trifluoromethyl)benzyl)-1H-1,2,4-triazole-3-carboxamide] were, in that order, 4.93 µM and 15.2 µM.
Taken in the same sequence, the figures for `CC(C)(C)c1ccc(CN(Cc2ccccc2)C(=O)c2ncn(-c3cc(Cl)c(O)c(Cl)c3)n2)cc1` [82i, N-benzyl-N-(4-tert-butylbenzyl)-1-(3,5-dichloro-4-hydroxyphenyl)-1H-1,2,4-triazole-3-carboxamide] were 1.6 µM and 19.7 µM.
The like results for `O=C(NCc1ccc(Oc2cccc(N3CCCC3)c2)cc1)c1ncn(-c2cc(Cl)c(O)c(Cl)c2)n1` [69i, 1-(3,5-dichloro-4-hydroxyphenyl)-N-(4-(3-(pyrrolidin-1-yl)phenoxy)benzyl)-1H-1,2,4-triazole-3-carboxamide] were, in that order, 4.3 µM and 5.99 µM.
`CC(C)(C)CCN(Cc1ccc(Cl)c(Cl)c1)C(=O)c1ncn(-c2cc(Cl)c(O)c(Cl)c2)n1` [107i, 1-(3,5-dichloro-4-hydroxyphenyl)-N-(3,4-dichlorobenzyl)-N-(3,3-dimethylbutyl)-1H-1,2,4-triazole-3-carboxamide]: the concentration for half-maximal inhibition (IC50) on CFTR amounted to 1.73 µM; at CHO-CFTR cell line, 26.9 µM.
The like results for `O=C(NCc1cc(Cl)cc(Cl)c1)c1ncn(-c2cc(Cl)c(O)c(Cl)c2)n1` [36i, 1-(3,5-dichloro-4-hydroxyphenyl)-N-(3,5-dichlorobenzyl)-1H-1,2,4-triazole-3-carboxamide] were, in that order, 3.7 µM and 13.7 µM.
As for `COCCOCCOCCN(Cc1ccc(Cl)c(Cl)c1)C(=O)c1ncn(-c2cc(Cl)c(O)c(Cl)c2)n1` [114i, 1-(3,5-dichloro-4-hydroxyphenyl)-N-(3,4-dichlorobenzyl)-N-(2-(2-(2-methoxyethoxy)ethoxy)ethyl)-1H-1,2,4-triazole-3-carboxamide], the half-maximal inhibitory concentration (IC50) at CFTR was 6.63 µM; against CHO-CFTR cell line, 22.7 µM.
The like results for `CCN(Cc1ccc(C(C)C)cc1)C(=O)c1ncn(-c2cc(Cl)c(O)c(Cl)c2)n1` [87i, 1-(3,5-dichloro-4-hydroxyphenyl)-N-ethyl-N-(4-isopropylbenzyl)-1H-1,2,4-triazole-3-carboxamide] were, in that order, 1.23 µM and 20.6 µM.
On to `O=C(c1ncn(-c2cc(Cl)c(O)c(Cl)c2)n1)N(Cc1ccccc1)Cc1ccc(Cl)c(Cl)c1` [83i, N-benzyl-1-(3,5-dichloro-4-hydroxyphenyl)-N-(3,4-dichlorobenzyl)-1H-1,2,4-triazole-3-carboxamide], for which the figures for the 50% inhibitory concentration (IC50) at CFTR and on CHO-CFTR cell line were 3.22 µM and 14.3 µM, respectively.
Taken in the same sequence, the figures for `O=C(NC(c1ccccc1)c1ccc(Cl)cc1)c1ncn(-c2cc(Cl)c(O)c(Cl)c2)n1` (stereo not shown) [33i, N-((4-chlorophenyl)(phenyl)methyl)-1-(3,5-dichloro-4-hydroxyphenyl)-1H-1,2,4-triazole-3-carboxamide] were 3.66 µM and 4.8 µM.
Taken in the same sequence, the figures for `O=C(c1ncn(-c2cc(Cl)c(O)c(Cl)c2)n1)N(Cc1ccccc1)Cc1ccc(Oc2ccccc2)cc1` [80i, N-benzyl-1-(3,5-dichloro-4-hydroxyphenyl)-N-(4-phenoxybenzyl)-1H-1,2,4-triazole-3-carboxamide] were 4.4 µM and 13.3 µM.

The values are drawn from patent publication US20100144733A1, “Compounds, compositions and methods comprising heteroaromatic derivatives” (Institute for OneWorld Health, priority 2008, published 2010).
